{"source": "patent US9593145B2", "about": "“Secondary structure stabilized NMDA receptor modulators and uses thereof” (Northwestern University, priority 2010, dated 2017)", "key": {"[1]": {"test_system": "Schaffer collateral CA1 synapses", "details": "cited from earlier work"}, "[2]": {"test_system": "Schaffer collateral CA1 synapses", "details": "cited from earlier work", "remark": "listed apart in the source"}, "NMDA receptor [3]": {"target": "T1, NMDA receptor (Rattus norvegicus, UniProt P35439)", "T1 construct": "in hippocampal CAI pyramidal neurons; from tissue; host or cells: in vitro hippocampal slices, CA1 pyramidal neurons", "details": "cited from earlier work"}, "NMDA receptor [4]": {"target": "T1, NMDA receptor", "assay": "NMDA receptor gated single neuron conductance (INMDA) in hippocampal CA1 pyramidal neurons", "format": "cell-based", "details": "for relative potency / magnitude as enhancer of INMDA among the tested compounds: low concentrations (50-100 nM)", "excerpt": "(§1) The effects of the three compounds were examined on 1) NMDA receptor gated single neuron conductance (INMDA) in hippocampal CAI pyramidal neurons and 2) the magnitude of long term potentiation (LTP) and long term depression (LTD) at Schaffer collateral CA1 synapses, in in vitro hippocampal slices."}, "[5]": {"test_system": "Glutamate, NMDA, Phencyclidine", "assay": "binding assay, Glutamate, NMDA, Phencyclidine", "design": "species or system rat", "details": "10 μM", "excerpt": "(§2) Table B depicts the results of binding assays against various targets with AK51: […]"}, "[6]": {"test_system": "Schaffer collateral CA1 synapses", "assay": "long term depression (LTD) at Schaffer collateral CA1 synapses, in vitro hippocampal slices", "format": "cell-based", "details": "1 μM; low frequency stimulus", "excerpt": "as §1"}, "Glutamate, Non-Selective": {"test_system": "Glutamate, Non-Selective", "assay": "binding assay, Glutamate, Non-Selective", "design": "species or system rat", "details": "10 μM", "excerpt": "as §2"}, "[7]": {"test_system": "Glutamate, NMDA, Polyamine", "assay": "binding assay, Glutamate, NMDA, Polyamine", "design": "species or system rat", "details": "10 μM", "excerpt": "as §2"}, "Glutamate, Kainate": {"test_system": "Glutamate, Kainate", "assay": "binding assay, Glutamate, Kainate", "design": "species or system rat", "details": "10 μM", "excerpt": "as §2"}, "Potassium Channel hERG": {"target": "Potassium Channel hERG (Homo sapiens, UniProt Q12809)", "sequence (Q12809 whole entry)": "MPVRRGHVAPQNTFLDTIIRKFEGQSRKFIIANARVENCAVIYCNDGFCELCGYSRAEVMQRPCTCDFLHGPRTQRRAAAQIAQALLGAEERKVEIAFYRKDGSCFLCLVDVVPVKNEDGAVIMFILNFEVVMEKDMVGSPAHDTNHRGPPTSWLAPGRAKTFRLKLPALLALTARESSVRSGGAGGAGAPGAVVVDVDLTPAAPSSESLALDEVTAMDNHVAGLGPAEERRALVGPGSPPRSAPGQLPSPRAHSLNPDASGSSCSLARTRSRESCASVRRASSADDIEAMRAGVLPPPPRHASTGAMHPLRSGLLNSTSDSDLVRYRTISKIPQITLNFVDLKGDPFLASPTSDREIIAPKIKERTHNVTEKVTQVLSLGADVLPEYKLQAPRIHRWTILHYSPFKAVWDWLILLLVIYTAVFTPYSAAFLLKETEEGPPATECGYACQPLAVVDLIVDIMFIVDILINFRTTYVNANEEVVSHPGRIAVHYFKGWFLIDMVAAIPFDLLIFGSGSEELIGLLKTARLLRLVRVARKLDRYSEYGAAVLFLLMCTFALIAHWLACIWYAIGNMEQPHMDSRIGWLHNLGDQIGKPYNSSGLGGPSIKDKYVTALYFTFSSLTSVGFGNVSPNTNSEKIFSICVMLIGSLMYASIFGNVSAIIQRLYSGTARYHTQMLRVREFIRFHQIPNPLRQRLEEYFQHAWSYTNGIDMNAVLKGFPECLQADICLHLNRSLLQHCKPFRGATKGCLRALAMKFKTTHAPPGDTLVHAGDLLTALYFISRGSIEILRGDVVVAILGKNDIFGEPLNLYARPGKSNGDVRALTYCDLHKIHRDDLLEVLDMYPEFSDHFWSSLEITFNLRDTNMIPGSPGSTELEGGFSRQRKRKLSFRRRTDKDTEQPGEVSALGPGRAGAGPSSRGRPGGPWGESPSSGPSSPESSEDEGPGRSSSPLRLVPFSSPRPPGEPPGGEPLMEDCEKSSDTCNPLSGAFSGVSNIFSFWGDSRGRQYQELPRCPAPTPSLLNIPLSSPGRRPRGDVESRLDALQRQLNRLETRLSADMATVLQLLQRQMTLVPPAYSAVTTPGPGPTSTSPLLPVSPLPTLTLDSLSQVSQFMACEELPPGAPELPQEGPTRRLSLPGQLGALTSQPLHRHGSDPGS", "assay": "binding assay, Potassium Channel hERG", "excerpt": "as §2"}, "[8]": {"assay": "alternating T-maze learning task", "format": "in vivo, rat", "details": "60 min before testing", "protocol": "Male 3 month old Fisher 344 X Brown Norway F1 cross rats (FBNF1) were used for this study. The t-maze was constructed with arms (45 cm long×10 cm wide×10 cm high) made of black Plexiglas enclosing the maze. Two plastic bottle caps, lined with wire mesh, were secured to the end of each goal arm in which the food reward (Cheerios, 100 mg/piece) was placed. Before the start of training, animals were gradually deprived of food to approximately 85% of their free feeding weight. On three successive days before the start of training, animals were habituated to the t-maze with food located throughout the maze. […] On the subsequent testing day, animals were given injections of AK51(0.3, 1, 3, 10, 30 mg/kg p.o.), or DMSO vehicle (1 mg/ml; Sigma, Saint Louis Mo.) in a blind manner via gastric gavage (4″, 16-ga; Braintree Scientific, Braintree Mass.) 60 min prior to the start of testing (n=8-9 per group. On the first trial of testing, both arms were baited with food and for the subsequent 20 trials only alternating choices (opposite of the animal's previous choice) were rewarded (˜30 sec inter-trial interval). The number of trials to criterion (5 consecutive correct choices) was calculated for each animal. Data was analyzed by ANOVA followed by Fisher PLSD post hoc tests comparing individual drug doses to vehicle (α=0.05). […]"}, "Glutamate, AMPA": {"test_system": "Glutamate, AMPA", "assay": "binding assay, Glutamate, AMPA", "design": "species or system rat", "details": "10 μM", "excerpt": "as §2"}, "Glutamate, NMDA, Agonism": {"test_system": "Glutamate, NMDA, Agonism", "assay": "binding assay, Glutamate, NMDA, Agonism", "design": "species or system rat", "details": "10 μM", "excerpt": "as §2"}, "[9]": {"test_system": "Glycine, Strychnine-Sensitive", "assay": "binding assay, Glycine, Strychnine-Sensitive", "design": "species or system rat", "details": "10 μM", "excerpt": "as §2"}, "[10]": {"test_system": "Schaffer collateral CA1 synapses", "assay": "long term potentiation (LTP) at Schaffer collateral CA1 synapses, in vitro hippocampal slices", "format": "cell-based", "details": "for effect on magnitude of LTP: high frequency stimulus", "excerpt": "as §1"}}, "note": "Entries after “also recorded” stand apart in the source; their conditions may differ. Where two headings read alike, the source gives them in different places. Residues, ends and D or L forms follow the SMILES beside them."}
{"molecule": "C[C@@H](O)[C@H](N)C(=O)N1CCC[C@H]1C(=O)N1CCC[C@H]1C(=O)N[C@H](C(N)=O)[C@@H](C)O", "note": "[GLYX-13] (H-TPPT-NH2)", "values": [{"measurement": "effect on LTP", "setting": "[1]; 100 μM", "value": "reducing"}, {"measurement": "effect on LTP", "setting": "[1]; low concentration 1-10 μM", "value": "enhancement"}, {"measurement": "effect on LTD", "setting": "[2]; 100 μM", "value": "no longer affected"}, {"measurement": "effect on LTD", "setting": "[2]; low concentration 1-10 μM", "value": "reducing"}, {"measurement": "effect on burst INMDA", "setting": "NMDA receptor [3]; 100 μM", "value": "reducing"}, {"measurement": "effect on burst-activated INMDA", "setting": "NMDA receptor [3]; low concentration 1-10 μM", "value": "enhancement"}, {"measurement": "effect on single pulse evoked INMDA", "setting": "NMDA receptor [3]; low concentration 1-10 μM", "value": "reducing"}]}
{"molecule": "O=C1NCC12CCCN2", "note": "(stereo not drawn) [AK51]", "values": [{"measurement": "effect on single shock evoked INMDA (NMDA e.p.s.c.s)", "setting": "NMDA receptor [4]; 100 nM, listed as NRX-10,051", "value": "enhanced; also recorded: marked enhancement"}, {"measurement": "effect on single shock evoked INMDA (NMDA e.p.s.c.s)", "setting": "NMDA receptor [4]; 1 μM", "value": "enhancement"}, {"measurement": "effect on single shock evoked INMDA (NMDA e.p.s.c.s)", "setting": "NMDA receptor [4]; 1 μM, listed as NRX-10,051", "value": "enhanced"}, {"measurement": "effect on NMDA current (NMDA receptor-gated current, whole-cell recording)", "setting": "NMDA receptor [4]; FIG. 4, 100 nM and 1 μM, 20 min bath application", "value": "enhances"}, {"measurement": "relative potency / magnitude as enhancer of INMDA among the tested compounds", "setting": "NMDA receptor [4]", "value": "less potency than compound B; also recorded: smaller in magnitude"}, {"measurement": "% Inhibition", "setting": "[5]", "value": "−5", "unit": "%"}, {"measurement": "effect on LTD", "setting": "[6]", "value": "not altering"}, {"measurement": "% Inhibition", "setting": "Glutamate, Non-Selective", "value": "−10", "unit": "%"}, {"measurement": "% Inhibition", "setting": "[7]", "value": "−14", "unit": "%"}, {"measurement": "% Inhibition", "setting": "Glutamate, Kainate", "value": "−13", "unit": "%"}, {"measurement": "inhibition at 10 µM", "setting": "Potassium Channel hERG", "value": 3, "unit": "%"}, {"measurement": "learning behavior in the T-maze test", "setting": "[8]; 1.0 mg/kg by mouth, P<0.001", "value": "statistically significant enhancement"}, {"measurement": "learning behavior in the T-maze test", "setting": "[8]; 3.0 mg/kg by mouth, P<0.01", "value": "statistically significant enhancement"}, {"measurement": "% Inhibition", "setting": "Glutamate, AMPA", "value": "−8", "unit": "%"}, {"measurement": "% Inhibition", "setting": "Glutamate, NMDA, Agonism", "value": 27, "unit": "%"}, {"measurement": "% Inhibition", "setting": "[9]", "value": 4, "unit": "%"}, {"measurement": "effect on magnitude of LTP", "setting": "[10]; 100 nM", "value": "potentiate"}, {"measurement": "effect on magnitude of LTP", "setting": "[10]; 1 μM", "value": "potentiate"}, {"measurement": "effect on magnitude of LTP", "setting": "[10]; 1 μM, listed as NRX-10,051", "value": "doubled"}, {"measurement": "effect on LTP", "setting": "[10]; FIG. 4, 100 nM and 1 μM bath application", "value": "enhances"}]}
{"molecule": "CC(O)C(NC(=O)OCc1ccccc1)C(=O)N1CC2(CCCN2C(=O)OCc2ccccc2)C1=O", "note": "(stereo not drawn) [AK-52]", "values": [{"measurement": "effect on single shock evoked INMDA (NMDA e.p.s.c.s)", "setting": "NMDA receptor [4]; 100 nM", "value": "only a mild enhancement"}, {"measurement": "effect on single shock evoked INMDA (NMDA e.p.s.c.s)", "setting": "NMDA receptor [4]; 100 nM, listed as AK52", "value": "enhancement"}, {"measurement": "effect on single shock evoked INMDA (NMDA e.p.s.c.s)", "setting": "NMDA receptor [4]; 1 μM", "value": "significant reduction"}, {"measurement": "effect on single shock evoked INMDA (NMDA e.p.s.c.s)", "setting": "NMDA receptor [4]; 1 μM, listed as AK52", "value": "marked reduction"}, {"measurement": "relative potency / magnitude as enhancer of INMDA among the tested compounds", "setting": "NMDA receptor [4]", "value": "weakest enhancer"}, {"measurement": "effect on LTD", "setting": "[6]", "value": "without altering; also recorded: did not affect"}, {"measurement": "effect on magnitude of LTP", "setting": "[10]; 100 nM", "value": "enhancement of LTP similar in magnitude to compound B and AK-51"}, {"measurement": "effect on magnitude of LTP", "setting": "[10]; 1 μM", "value": "slight, but significant, reduction"}, {"measurement": "effect on induction / magnitude of LTP", "setting": "[10]; concentration not given", "value": "selectively enhances"}]}
